As a reminder, the inhibition is the percentage by which the read-out fell short of the control.

Like-named read-outs stand apart in the source and are kept apart here.

29 compounds from PMC10460039 (Molecules, 2023) can be followed below.

Assay [1] deals with T1, tyrosinase (Agaricus bisporus, UniProt C7FF04). The assay is described as follows: Tyrosinase inhibitory activity using L-DOPA as substrate. The format is biochemical, mushroom. The conditions noted are these: read-out: Inhibition Rate at 64 μM (%). The procedure: Compounds c1~c29 were tested for their tyrosinase inhibitory activities according to previous reports. Each compound was dissolved in DMSO and diluted to different concentrations. Tyrosinase and L-DOPA were dissolved in PBS solution (50 mM, pH 6.8). To 140 μL of tyrosinase (final concentration: 66.7 U/mL) solution, 10 μL of compound was added and incubated for 5 min at 25 °C, followed by the addition of 50 µL of L-DOPA (final concentration: 2 mM). Then, absorbance of the mixture was read at 475 nm. The inhibitory activity of each compound was calculated using DMSO as a blank control.
Target sequence in this assay (C7FF04 2-392): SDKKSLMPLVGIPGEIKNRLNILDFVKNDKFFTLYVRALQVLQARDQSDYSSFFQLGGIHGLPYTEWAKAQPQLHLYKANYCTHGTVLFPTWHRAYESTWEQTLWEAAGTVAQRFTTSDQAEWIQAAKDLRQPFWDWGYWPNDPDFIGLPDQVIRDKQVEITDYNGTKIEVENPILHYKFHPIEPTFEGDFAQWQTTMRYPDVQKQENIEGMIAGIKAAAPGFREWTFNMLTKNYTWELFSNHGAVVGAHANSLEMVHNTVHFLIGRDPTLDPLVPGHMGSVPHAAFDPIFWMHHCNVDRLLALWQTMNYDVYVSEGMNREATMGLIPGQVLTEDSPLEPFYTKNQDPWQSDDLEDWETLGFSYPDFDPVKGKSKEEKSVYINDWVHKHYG

In assay [2] the target is T1, tyrosinase. The assay is described as follows: Three-dimensional fluorescence spectra of tyrosinase–compound mixture. Also noted: species or system mushroom. The conditions noted are these: 3D fluorescence. As for the experimental part: The 3D fluorescence spectra of tyrosinase-compound c27 mixture was measured according to previous reports. To 3 mL of tyrosinase solution (final concentration: 168 μM) in PBS, 10 µL of compound c27 (2 mM) was added and incubated for 5 min. Then, the 3D fluorescence spectra analyses were conducted in room temperature. The excitation and emission wavelengths were 200–600 nm and the slit width was 2.5 nm.
Target sequence in this assay (C7FF04 2-392): as above

Assay [3] addresses T1, tyrosinase. The assay is described as follows: Fluorescence quenching of tyrosinase (Stern–Volmer). The format is binding, mushroom. Also noted: purchased Sigma-Aldrich. The procedure: An amount of 1 μL of compound c27 solution was titrated into 2 mL of tyrosinase and incubated for 5 min. […] The quenching mechanism and parameters were investigated by the Stern–Volmer equation.
Target sequence in this assay (C7FF04 1-392 limits assumed): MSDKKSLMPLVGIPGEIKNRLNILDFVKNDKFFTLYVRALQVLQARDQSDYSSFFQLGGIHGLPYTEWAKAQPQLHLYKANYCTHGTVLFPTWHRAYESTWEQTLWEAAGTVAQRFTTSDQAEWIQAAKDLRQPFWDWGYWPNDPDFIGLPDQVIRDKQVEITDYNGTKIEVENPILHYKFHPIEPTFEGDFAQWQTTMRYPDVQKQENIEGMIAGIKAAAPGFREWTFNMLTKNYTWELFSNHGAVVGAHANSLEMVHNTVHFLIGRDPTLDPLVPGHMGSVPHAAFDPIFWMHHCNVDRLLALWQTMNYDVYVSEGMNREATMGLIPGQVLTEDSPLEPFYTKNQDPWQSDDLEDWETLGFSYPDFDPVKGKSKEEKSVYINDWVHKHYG

Assay [4] concerns the target T1, tyrosinase. The assay is described as follows: Circular dichroism spectra, secondary structure contents of tyrosinase. Also noted: purchased Sigma-Aldrich; species or system mushroom. The procedure: The CD spectra of tyrosinase-compound c27 mixture were measured according to previous reports. To 190 µL of tyrosinase solution (final concentration: 64.65 μM) in PBS, 10 µL of compound c27 (1.28, 2.56, and 3.84 mM) was added and incubated for 5 min. Then, the CD spectra were measured at 195~250 nm at room temperature.
Target sequence in this assay (C7FF04 1-392): as the sequence (C7FF04 1-392 limits assumed) above

The target of assay [5] is T1, tyrosinase. The experiment in a line: Inhibition kinetic study (enzyme and substrate kinetics, Lineweaver–Burk). The format is biochemical, mushroom. The conditions noted are these: c27 0~4 μM. As for the experimental part: The kinetics studies were carried out using the same experimental method as described above. For enzyme kinetics, the absorbance of the mixture containing different concentrations of tyrosinase (final concentration: 66.7 U/mL) and compound c27 (0, 2, 3, and 4 μM) was recorded at 475 nm, respectively. For substrate kinetics, the absorbance of the mixture containing different concentrations of L-DOPA (final concentration: 2, 4, 6 and 8 mM) and compound c27 (0, 2, 3 and 4 μM) was recorded at 475 nm, respectively.
Target sequence in this assay (C7FF04 2-392): as the sequence (C7FF04 2-392) above

Setting [6] is: compound concentration 64 μM, L-DOPA substrate.

Take `C=CCc1ccc(OC(=O)/C=C/c2ccc(F)cc2)c(OC)c1` [c10, 4-allyl-2-methoxyphenyl (E)-3-(4-fluorophenyl)acrylate]: the inhibition at 64 µM at tyrosinase [1] (setting [6]) came out at 17 ± 1%.
The same measure, in the same setting: next, `C=CCc1ccc(OC(=O)/C=C/c2ccccc2[N+](=O)[O-])c(OC)c1` [c16, 4-allyl-2-methoxyphenyl (E)-3-(2-nitrophenyl)acrylate]: 5 ± 0.1%; `C=CCc1ccc(OC(=O)/C=C/c2ccc(Cl)c(F)c2)c(OC)c1` [c28, 4-allyl-2-methoxyphenyl (E)-3-(4-chloro-3-fluorophenyl)acrylate]: 19 ± 0.2%.
As to `C=CCc1ccc(OC(=O)/C=C/c2ccc(O)c(OC)c2)c(OC)c1` [c26, 4-allyl-2-methoxyphenyl (E)-3-(4-hydroxy-3-methoxyphenyl)acrylate], the inhibition at 64 µM on tyrosinase [1] (setting [6]) was 47 ± 1%.
Regarding `C=CCc1ccc(OC(=O)/C=C/c2cccc(O)c2)c(OC)c1` [c14, 4-allyl-2-methoxyphenyl (E)-3-(3-hydroxyphenyl)acrylate], on tyrosinase [1] (setting [6]), the inhibition at 64 µM was determined as 67.6%.
Consider `C=CCc1ccc(OC(=O)/C=C/c2ccccc2C(F)(F)F)c(OC)c1` [c22, 4-allyl-2-methoxyphenyl (E)-3-(2-(trifluoromethyl)phenyl)acrylate], for which the inhibition at 64 µM on tyrosinase [1] (setting [6]) was found to be 6 ± 0.5%.
Turning to `C=CCc1ccc(OC(=O)/C=C/c2ccccc2Cl)c(OC)c1` [c5, 4-allyl-2-methoxyphenyl (E)-3-(2-chlorophenyl)acrylate], the inhibition at 64 µM on tyrosinase [1] (setting [6]) was determined as 29 ± 3%.
Same read-out and setting: next, `C=CCc1ccc(OC(=O)/C=C/c2ccc(OC)cc2)c(OC)c1` [c21, 4-allyl-2-methoxyphenyl (E)-3-(4-methoxyphenyl)acrylate]: 7 ± 0.9%; `C=CCc1ccc(OC(=O)/C=C/c2ccc(Br)cc2)c(OC)c1` [c13, 4-allyl-2-methoxyphenyl (E)-3-(4-bromophenyl)acrylate]: 13 ± 1%.
As for `C=CCc1ccc(OC(=O)/C=C/c2ccccc2Br)c(OC)c1` [c11, 4-allyl-2-methoxyphenyl (E)-3-(2-bromophenyl)acrylate], the inhibition at 64 µM at tyrosinase [1] (setting [6]) came out at 10 ± 0.4%.
`C=CCc1ccc(OC(=O)/C=C/c2ccc3c(c2)OCO3)c(OC)c1` [c29, 4-allyl-2-methoxyphenyl (E)-3-(benzo[d][1,3]dioxol-5-yl)acrylate]: the inhibition at 64 µM at tyrosinase [1] (setting [6]) is 4 ± 1%.
On to `C=CCc1ccc(OC(=O)/C=C/c2cccc(OC)c2)c(OC)c1` [c20, 4-allyl-2-methoxyphenyl (E)-3-(3-methoxyphenyl)acrylate], for which, on tyrosinase [1] (setting [6]), the inhibition at 64 µM was 3 ± 0.1%.
With `C=CCc1ccc(OC(=O)C=Cc2ccccc2)c(OC)c1` [c1, 4-allyl-2-methoxyphenyl cinnamate], the inhibition at 64 µM at tyrosinase [1] (setting [6]) amounted to 12 ± 1%.
As for `C=CCc1ccc(OC(=O)/C=C/c2ccc(C)cc2)c(OC)c1` [c4, 4-allyl-2-methoxyphenyl (E)-3-(p-tolyl)acrylate], the inhibition at 64 µM on tyrosinase [1] (setting [6]) was determined as 15 ± 1%.
On to `C=CCc1ccc(OC(=O)/C=C/c2ccc(N(C)C)cc2)c(OC)c1` [c25, 4-allyl-2-methoxyphenyl (E)-3-(4-(dimethylamino)phenyl)acrylate], for which, at tyrosinase [1] (setting [6]), the inhibition at 64 µM turned out to be 26 ± 1%.
Take `C=CCc1ccc(OC(=O)/C=C/c2cccc(C)c2)c(OC)c1` [c3, 4-allyl-2-methoxyphenyl (E)-3-(m-tolyl)acrylate]: the inhibition at 64 µM on tyrosinase [1] (setting [6]) amounted to 39 ± 3%.
The same measure, in the same setting: next, `C=CCc1ccc(OC(=O)/C=C/c2ccccc2F)c(OC)c1` [c8, 4-allyl-2-methoxyphenyl (E)-3-(2-fluorophenyl)acrylate]: 17 ± 3%; `C=CCc1ccc(OC(=O)/C=C/c2cccc(Br)c2)c(OC)c1` [c12, 4-allyl-2-methoxyphenyl (E)-3-(3-bromophenyl)acrylate]: 3 ± 0.8%.
`C=CCc1ccc(OC(=O)/C=C/c2ccc(O)cc2)c(OC)c1` [c15, 4-allyl-2-methoxyphenyl (E)-3-(4-hydroxyphenyl)acrylate]: the inhibition at 64 µM at tyrosinase [1] (setting [6]) was 76.1%.
Regarding `C=CCc1ccc(OC(=O)/C=C/c2ccc(Cl)cc2)c(OC)c1` [c7, 4-allyl-2-methoxyphenyl (E)-3-(4-chlorophenyl)acrylate], the inhibition at 64 µM on tyrosinase [1] is 24 ± 1%.
As to `C=CCc1ccc(OC(=O)/C=C/c2cccc(F)c2)c(OC)c1` [c9, 4-allyl-2-methoxyphenyl (E)-3-(3-fluorophenyl)acrylate], on tyrosinase [1] (setting [6]), the inhibition at 64 µM was 17 ± 3%.
On to `C=CCc1ccc(OC(=O)/C=C/c2ccc(C(F)(F)F)cc2)c(OC)c1` [c24, 4-allyl-2-methoxyphenyl (E)-3-(4-(trifluoromethyl)phenyl)acrylate], for which the inhibition at 64 µM on tyrosinase [1] (setting [6]) came out at 2 ± 0.1%.
Regarding `C=CCc1ccc(OC(=O)/C=C/c2ccccc2C)c(OC)c1` [c2, 4-allyl-2-methoxyphenyl (E)-3-(o-tolyl)acrylate], the inhibition at 64 µM at tyrosinase [1] (setting [6]) worked out at 12 ± 0.3%.
Same read-out and setting: as for `C=CCc1ccc(OC(=O)/C=C/c2cccc([N+](=O)[O-])c2)c(OC)c1` [c17, 4-allyl-2-methoxyphenyl (E)-3-(3-nitrophenyl)acrylate], the figure is 9 ± 0.8%; as for `C=CCc1ccc(OC(=O)/C=C/c2ccc([N+](=O)[O-])cc2)c(OC)c1` [c18, 4-allyl-2-methoxyphenyl (E)-3-(4-nitrophenyl)acrylate], 14 ± 1%.
Regarding `C=CCc1ccc(OC(=O)/C=C/c2ccccc2OC)c(OC)c1` [c19, 4-allyl-2-methoxyphenyl (E)-3-(2-methoxyphenyl)acrylate], the inhibition at 64 µM on tyrosinase [1] (setting [6]) came out at 3 ± 0.2%.
Turning to `C=CCc1ccc(OC(=O)/C=C/c2cccc(C(F)(F)F)c2)c(OC)c1` [c23, 4-allyl-2-methoxyphenyl (E)-3-(3-(trifluoromethyl)phenyl)acrylate], the inhibition at 64 µM on tyrosinase [1] (setting [6]) was found to be 5 ± 0.2%.
Turning to `C=CCc1ccc(OC(=O)/C=C/c2cccc(Cl)c2)c(OC)c1` [c6, 4-allyl-2-methoxyphenyl (E)-3-(3-chlorophenyl)acrylate], the inhibition at 64 µM on tyrosinase [1] (setting [6]) was determined as 17 ± 2%.
Turning to `C=CCc1ccc(OC(=O)/C=C/c2ccc(O)c(O)c2)c(OC)c1` [c27, 4-allyl-2-methoxyphenyl (E)-3-(3,4-dihydroxyphenyl)acrylate], the “reduction of intensity of peak 1 (λex/λem = 280 nm/340 nm)” value on tyrosinase [2] (Tyr and Trp residues) came out at 21.47%. Further, at tyrosinase [2] (polypeptide strand transition), the “reduction of intensity of peak 2 (λex/λem = 230 nm/335 nm)” value is 32.71%. On tyrosinase [1] (setting [6]), the inhibition at 64 µM turned out to be 81.5%. In addition, on tyrosinase [3], the “number of binding sites (in words)” value is “one” and the quenching mechanism result is on record as “static”. Moreover, at tyrosinase [3] (304 K), the “KSV (Stern–Volmer quenching constant)” value amounted to 47700 L/mol, the “Kq (quenching rate constant)” value worked out at 4.77e+12 L/mol and the “n (number of binding sites)” value worked out at 0.59. In addition, on tyrosinase [3] (307 K), the “KSV (Stern–Volmer quenching constant)” value was found to be 43200 L/mol, the “Kq (quenching rate constant)” value turned out to be 4.32e+12 L/mol and the “n (number of binding sites)” value is 0.86. Further, at tyrosinase [3] (310 K), the “KSV (Stern–Volmer quenching constant)” value worked out at 42900 L/mol, the “Kq (quenching rate constant)” value turned out to be 4.29e+12 L/mol and the “n (number of binding sites)” value was found to be 0.99. Also, at tyrosinase [4] ([Tyrosinase]:[c27] 1:1), the “Random Coil (%)” value was 28.23%, the “α-Helix (%)” value is listed as 7.12%, the “β-Sheet (%)” value is reported as 49.00% and the “β-Turn (%)” value is recorded as 17.63%. On tyrosinase [4] ([Tyrosinase]:[c27] 1:2), the “Random Coil (%)” value came out at 28.12%, the “α-Helix (%)” value came to 9.56%, the “β-Sheet (%)” value stood at 49.23% and the “β-Turn (%)” value came to 18.37%. Further, at tyrosinase [4] ([Tyrosinase]:[c27] 1:3), the “Random Coil (%)” value is 27.94%, the “α-Helix (%)” value was 9.85%, the “β-Sheet (%)” value is 49.27% and the “β-Turn (%)” value is recorded as 18.55%. The inhibition type entry against tyrosinase [5] (Lineweaver–Burk plots) is given as “mixed-type”. Besides, the reversibility of inhibition result on tyrosinase [5] (ν versus [E] plots) is on record as “reversible”.
